Like-named read-outs stand apart in the source and are kept apart here.
Molecular target: DCN1 (DCUND1) protein PONY domain (Homo sapiens (Human), UniProt Q96GG9)
Test: TR-FRET assay (binding to DCN-1, displacement of FAM-labeled probe)
From the text: (§1) The TR-FRET assay was designed following the Scott et al. protocol (Scott et al., Nat Chem Biol. 2017 August; 13(8): 850-857. doi:10.1038/nchembio.2386). The recombinant form of the DCN1 (DCUND1) protein PONY domain was produced using an E. coli expression system at Viva Biotech (China). The DCN1 protein was biotinylated (EZ sulfo-NHS-LC-biotin; Thermofisher) for labeling with streptavidin terbium (Tb) cryptate in the reaction. The probe was changed to a non-covalent DCN1 inhibitor labeled with carboxyfluorescein (FAM; Zhou et al., Nat Commun. 2017; 8: 1150. doi: 10.1038/s41467-017-01243-7). Buffer conditions were modified to enhance protein stability by exchanging Tween20 for TritonX and increasing NaCl to 200 mM. The compounds were screened against 5 nM DCN1 and 20 nM FAM-probe or 0.31 nM DCN1 and 900 nM total probe (100 nM FAM-labeled plus 800 nM unlabeled). The TR-FRET ratio between Tb-DCN1 and the FAM-labeled probe was measured in a 384-well opti-plate (Perkin Elmer) using a plate reader (BMG) at 1, 5, and 24 hrs after treatment with compound (final DMSO concentration of 0.1%). The ratio was normalized to the high (DCN1 and FAM-probe) and low (DCN1 and no probe) controls for a readout of % activity (=100*(x−low)/(high−low).
A TR-FRET assay was performed to evaluate the ability of the compounds to bind the DCN-1 protein.
as §1, with “850-857. Doi: 10.1038/nchembio.2386).” for “850-857. doi:10.1038/nchembio.2386).”, “the DCNI” for “the DCN1”, “1150. Doi:” for “1150. doi:”, “0.1%).” for “0.1%). The ratio was normalized to the high (DCN1 and FAM-probe) and low (DCN1 and no probe) controls for a readout of % activity (=100*(x−low)/(high−low).”

[1] = 24 hr after treatment with compound, read-out: TR FRET IC50 24 hr
[2] = TR FRET IC50 1 hr (nM), 1 hr after treatment with compound
[3] = read-out: TR FRET IC50 1 hr, 1 hr after treatment with compound

Sequence of DCN1 (DCUND1) protein PONY domain (Q96GG9 60-248): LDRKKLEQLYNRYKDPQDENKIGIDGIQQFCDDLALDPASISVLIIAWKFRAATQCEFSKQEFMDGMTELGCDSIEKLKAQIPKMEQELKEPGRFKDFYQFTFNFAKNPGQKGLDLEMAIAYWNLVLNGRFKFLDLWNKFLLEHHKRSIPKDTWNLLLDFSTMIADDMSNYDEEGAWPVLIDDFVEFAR

SMILES	IC50 [1]	IC50 [2]	IC50 [3]
C/C=C(\CN1CCC1)C(=O)NCc1cccc([C@@H]2c3cnn(-c4ccccc4)c3N(CC)C(=O)[C@H]2NC(=O)c2cccc(C(F)(F)F)c2)c1 [Compound I-341]	≤ 200 nM	200 to 1000 nM	–
C=C(C(=O)NCc1cccc([C@@H]2c3cnn(-c4ccccc4)c3N(CC)C(=O)[C@H]2NC(=O)c2nccc(C(F)(F)F)n2)c1)C(C)N1CCC12COC2 (some centres unmarked) [Compound I-256]	≤ 200 nM	200 to 1000 nM	–
C=C(CN1C[C@@H]2C[C@H]1CO2)C(=O)NCc1cccc([C@@H]2c3cnn(-c4ccccc4)c3N(CC)C(=O)[C@@H]2NC(=O)c2cccc(C(F)(F)F)c2)c1 [Compound I-144]	200 to 1000 nM	1000 to 3000 nM	–
C=C(C(=O)NCc1cccc([C@@H]2c3cnn(-c4ccccc4)c3N(CC)C(=O)[C@H]2NC(=O)c2csc(C(F)(F)F)n2)c1)C(C(C)C)N(C)C1COC1 (some centres unmarked) [Compound I-352]	≤ 200 nM	–	≤ 200 nM
C=C(CN(C)C1COC1)C(=O)N(C)Cc1cccc([C@@H]2c3cnn(-c4ccccc4)c3N(CC)C(=O)[C@H]2NC(=O)c2nccc(C(F)(F)F)n2)c1 [Compound I-254]	–	1000 to 3000 nM	–
CCN1C(=O)[C@@H](NC(=O)c2cccc(C(F)(F)F)c2)[C@H](c2cncc(NC(=O)C3=CCC3)c2)c2cnn(-c3ccccc3)c21 (racemic) [Compound I-36]	1000 to 3000 nM	–	1000 to 3000 nM
CCN1C(=O)[C@@H](NC(=O)c2cccc(C(F)(F)F)c2)[C@H](c2cccc(CNC(=O)/C=C/C(=O)OC)c2)c2cnn(-c3ccccc3)c21 (racemic) [Compound I-143]	200 to 1000 nM	1000 to 3000 nM	–
C=C(CN1CC2CC(C1)O2)C(=O)NCc1cccc([C@@H]2c3cnn(-c4ccccc4)c3N(CC)C(=O)[C@H]2NC(=O)c2ccn(C(F)(F)F)n2)c1 [Compound I-315]	≤ 200 nM	–	≤ 200 nM
CCN1C(=O)[C@@H](NC(=O)c2cccc(C(F)(F)F)c2)[C@H](c2cccc(NC(=O)C3=C(C(=O)OC)CCC3)c2)c2c(C)nn(-c3ccccc3)c21 (racemic) [Compound I-117]	1000 to 3000 nM	1000 to 3000 nM	–
CCN1C(=O)[C@@H](NC(=O)c2cccc(C(F)(F)F)c2)[C@H](c2cccc(CNC(=O)C(C)Cl)c2)c2cnn(-c3ccccc3)c21 (mixture of isomers) [Compound I-112]	1000 to 3000 nM	1000 to 3000 nM	–
CCN1C(=O)[C@H](NC(=O)c2cccc(C(F)(F)F)c2)[C@@H](c2cccc(N(C)C(=O)/C=C/C(F)(F)F)c2)c2cnn(-c3ccccc3)c21 (racemic) [Compound I-99]	1000 to 3000 nM	1000 to 3000 nM	–
C=C(CN1CCOCC1)C(=O)N[C@H](C)c1cccc([C@@H]2c3cnn(-c4ccccc4)c3N(CC)C(=O)[C@H]2NC(=O)c2nccc(C(F)(F)F)n2)c1 (mixture of isomers) [Compound I-281]	200 to 1000 nM	1000 to 3000 nM	–
C=C(CN1CCOCC1)C(=O)N[C@@H](C)c1cccc([C@@H]2c3cnn(-c4ccccc4)c3N(CC)C(=O)[C@H]2NC(=O)c2nccc(C(F)(F)F)n2)c1 [Compound I-299]	1000 to 3000 nM	1000 to 3000 nM	–
C=C(CN1CCC1)C(=O)NCc1cccc([C@@H]2c3cnn(-c4ccccc4)c3N(CC)C(=O)[C@H]2NC(=O)c2nccc(C(F)(F)F)n2)c1 [Compound I-162]	≤ 200 nM	–	≤ 200 nM
C/C=C(\CN1CCC1)C(=O)NCc1cccc([C@@H]2c3cnn(-c4ccccc4)c3N(CC)C(=O)[C@H]2NC(=O)c2ccn(C3CC3)n2)c1 [Compound I-309]	≤ 200 nM	≤ 200 nM	–
CCN1C(=O)[C@@H](NC(=O)c2ccn(C(F)(F)F)n2)[C@H](c2cccc(NC(=O)C3=CCN(C)C3)c2)c2c(C)nn(-c3ccccc3)c21 [Compound I-323]	≤ 200 nM	200 to 1000 nM	–
CCN1C(=O)[C@@H](NC(=O)c2cccc(C(F)(F)F)c2)[C@H](c2cccc3c2CN(C#N)C3)c2cnn(-c3ccccc3)c21 (racemic) [Compound I-282, rac-N-((4R,5S)-4-(2-cyanoisoindolin-4-yl)-7-ethyl-6-oxo-1-phenyl-4,5,6,7-tetrahydro-1H-pyrazolo[3,4-b]pyridin-5-yl)-3-(trifluoromethyl)benzamide]	1000 to 3000 nM	1000 to 3000 nM	–
C=C(CN1CC2(COC2)C1)C(=O)NCc1cccc([C@H]2c3c(C)nn(-c4ccccc4)c3N(CC)C(=O)[C@H]2NC(=O)c2cccc(C(F)(F)F)c2)c1 [Compound I-304]	200 to 1000 nM	1000 to 3000 nM	–

SMILES	IC50 [1]	IC50 [2]	IC50 [3]
C=C(CN1CC2CC1CO2)C(=O)NCc1cccc([C@@H]2c3cnn(-c4ccccc4)c3N(CC)C(=O)[C@H]2NC(=O)c2cccc(C(F)(F)F)c2)c1 (some centres unmarked) [Compound I-7]	≤ 200 nM	–	≤ 200 nM
CCN1C(=O)[C@@H](NC(=O)c2cccc(C(F)(F)F)c2)[C@H](c2cccc(CNC(=O)C3=CCN(C)C3)c2)c2cnn(-c3ccccc3)c21 [Compound I-54]	≤ 200 nM	1000 to 3000 nM	–
C/C=C(\CN1CCOCC1)C(=O)N(C)Cc1cccc([C@@H]2c3cnn(-c4ccccc4)c3N(CC)C(=O)[C@H]2NC(=O)c2nccc(C(F)(F)F)n2)c1 [Compound I-326]	1000 to 3000 nM	1000 to 3000 nM	–
C=C(CN1CC2(CCO2)C1)C(=O)NCc1cccc([C@@H]2c3cnn(-c4ccccc4)c3N(CC)C(=O)[C@H]2NC(=O)c2cccc(C(F)(F)F)c2)c1 [Compound I-63]	≤ 200 nM	–	≤ 200 nM
C=C(CN1C[C@@H]2C[C@H]1CO2)C(=O)NCc1cccc([C@@H]2c3cnn(-c4ccccc4)c3N(CC)C(=O)[C@H]2NC(=O)c2nccc(C(F)(F)F)n2)c1 (mixture of isomers) [Compound I-160]	≤ 200 nM	–	≤ 200 nM
CCN1C(=O)[C@@H](NC(=O)c2cccc(C(F)(F)F)c2)[C@@H](c2cc(NC(=O)/C=C/CN(C)C)ccc2F)c2cnn(-c3ccccc3)c21 (racemic) [Compound I-107]	1000 to 3000 nM	1000 to 3000 nM	–
C=C(CN1CC2(COC2)C1)C(=O)NCc1cccc([C@@H]2c3cnn(-c4ccccc4)c3N(CC)C(=O)[C@H]2NC(=O)c2nccc(C(F)(F)F)n2)c1 [Compound I-161]	≤ 200 nM	–	≤ 200 nM
CCN1C(=O)[C@@H](NC(=O)c2cccc(C(F)(F)F)c2)[C@@H](c2cc(F)cc(NC(=O)/C=C/CN(C)C)c2)c2cnn(-c3ccccc3)c21 (racemic) [Compound I-85]	1000 to 3000 nM	1000 to 3000 nM	–
C/C=C(\CN(C)C1COC1)C(=O)Nc1cccc([C@@H]2c3cnn(-c4ccccc4)c3N(CC)C(=O)[C@H]2NC(=O)c2nccc(C(F)(F)F)n2)c1 [Compound I-384]	≤ 200 nM	200 to 1000 nM	–
CCN1C(=O)[C@@H](NC(=O)c2cccc(C(F)(F)F)c2)[C@H](c2cccc(CNC(=O)C3=CCN(C)C3)c2)c2c(C)nn(-c3ccccc3)c21 [Compound I-244]	≤ 200 nM	1000 to 3000 nM	–
C=C(C(=O)NCc1cccc([C@@H]2c3cnn(-c4ccccc4)c3N(CC)C(=O)[C@H]2NC(=O)c2ccn(C3CC3)n2)c1)C(C)N1CCC12COC2 (some centres unmarked) [Compound I-325]	–	200 to 1000 nM	–
CCN1C(=O)[C@H](NC(=O)c2cccc(C(F)(F)F)c2)[C@@H](c2cccc(NC(=O)C#CCN3CCOCC3)c2)c2c(C)nn(-c3ccccc3)c21 (racemic) [Compound I-35]	1000 to 3000 nM	1000 to 3000 nM	–
C/C=C(\CN1CCC1)C(=O)Nc1cccc([C@@H]2c3cnn(-c4ccccc4)c3N(CC)C(=O)[C@H]2NC(=O)c2nccc(C(F)(F)F)n2)c1 [Compound I-367]	≤ 200 nM	1000 to 3000 nM	–
C=C(CN1CCOCC1)C(=O)NCc1cccc([C@H]2c3cnn(-c4ccccc4)c3N(CC)C(=O)[C@@H]2NC(=O)c2cccc(C(F)(F)F)c2)c1 [Compound I-93]	1000 to 3000 nM	1000 to 3000 nM	–
C=C(CN1CC2CC(C1)O2)C(=O)NCc1cccc([C@@H]2c3cnn(-c4ccccc4)c3N(CC)C(=O)[C@H]2NC(=O)c2cccc(C(F)(F)F)c2)c1 [Compound I-290]	≤ 200 nM	–	≤ 200 nM
CCN1C(=O)[C@@H](NC(=O)c2cccc(C(F)(F)F)c2)[C@H](c2cccc(NC(=O)/C(C)=C/C(=O)OC)c2)c2c(C)nn(-c3ccccc3)c21 (racemic) [Compound I-145]	200 to 1000 nM	1000 to 3000 nM	–
C=CC(=O)N(C)c1cccc([C@H]2c3cnn(-c4ccccc4)c3N(CC)C(=O)[C@@H]2NC(=O)c2cccc(C(F)(F)F)c2)c1 (racemic) [Compound I-74]	1000 to 3000 nM	1000 to 3000 nM	–

— patent US12435087B2, “Modulators of DCN-1 and methods of use thereof” (Cellarity, Inc., priority 2023, dated 2025)
